The molecules below were run on HBV (assay: HBV-DNA antiviral assay using HepG2.117 cells (intracellular HBV DNA by qPCR)). Conditions: HBV DNA inhibition, 3 days incubation, read-out: EC50.
Format: cell-based, HBV genotype D
How it was run: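 Read-outs: cell-lysate HBV DNA copies by qPCR (interpolated from gBlock standard) and parallel cellular ATP luminescence for CC50, both normalised to 2% DMSO controls and fitted by non-linear regression. HepG2.117 Tet-off genotype D HBV cells, induced by doxycycline removal, exposed 3 days to 4-fold serial dilutions.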

| SMILES | EC50 |
| --- | --- |
| CC1Cn2c(c(C(=O)NCc3ccccc3-c3ncccn3)n(-c3ccc4c(cnn4C[C@@H](C)O)c3)c2=O)CN1C(=O)c1ccc(Br)c(C(F)(F)F)c1 (stereo in doubt) [Compound 91b, (6S*)-7-[4-bromo-3-(trifluoromethyl)benzoyl]-2-{1-[(2R)-2-hydroxypropyl]indazol-5-yl}-6-methyl-3-oxo-N-{[2-(pyrimidin-2-yl)phenyl]methyl}-5H,6H,8H-imidazo[1,5-a]pyrazine-1-carboxamide] | 50 to 500 nM |

Same assay, conditions: Hepatitis B virus, HepG2.117, 72 h, HBV DNA inhibition, 3 days incubation, read-out: EC50

| SMILES | EC50 |
| --- | --- |
| C[C@H]1Cn2c(c(C(=O)NCc3ccccc3-c3ccccn3)n(-c3ccc(OC[C@](C)(O)C(F)(F)F)cc3)c2=O)CN1C(=O)c1ccc(Br)c(C(F)(F)F)c1 (stereo in doubt) [Compound 90b, rac-(6S)-7-[4-bromo-3-(trifluoromethyl)benzoyl]-6-methyl-3-oxo-N-[[2-(2-pyridyl)phenyl]methyl]-2-[4-[rac-(2S)-3,3,3-trifluoro-2-hydroxy-2-methyl-propoxy]phenyl]-6,8-dihydro-5H-imidazo[1,5-a]pyrazine-1-carboxamide] | 50 to 500 nM |
| CC1Cn2c(c(C(=O)NCc3ccccc3-c3ncccn3)n(-c3ccc4c(cnn4C[C@@H](C)O)c3)c2=O)CN1C(=O)c1ccc(Br)c(C(F)(F)F)c1 (stereo in doubt) [Compound 91a, (6R*)-7-[4-bromo-3-(trifluoromethyl)benzoyl]-2-{1-[(2R)-2-hydroxypropyl]indazol-5-yl}-6-methyl-3-oxo-N-{[2-(pyrimidin-2-yl)phenyl]methyl}-5H,6H,8H-imidazo[1,5-a]pyrazine-1-carboxamide] | 50 to 500 nM |
| O=C(NCc1ccccc1-c1ncccn1)c1c2n(c(=O)n1-c1ccc(OC3CC3)cc1)C[C@@H](COCc1ccccc1)N(C(=O)c1ccc(Br)c(C(F)(F)F)c1)C2 (stereo in doubt) [Compound 130, 6-(benzyloxymethyl)-7-[4-bromo-3-(trifluoromethyl)benzoyl]-2-[4-(cyclopropoxy)phenyl]-3-oxo-N-[(2-pyrimidin-2-ylphenyl)methyl]-6,8-dihydro-5H-imidazo[1,5-a]pyrazine-1-carboxamide] | 500 to 5000 nM |
| O=C(NCc1ccccc1-c1ncccn1)c1c2n(c(=O)n1-c1ccc(OC3CC3)cc1)C[C@@H](CO)N(C(=O)c1ccc(Br)c(C(F)(F)F)c1)C2 (stereo in doubt) [Compound 131, 7-[4-bromo-3-(trifluoromethyl)benzoyl]-2-[4-(cyclopropoxy)phenyl]-6-(hydroxymethyl)-3-oxo-N-[(2-pyrimidin-2-ylphenyl)methyl]-6,8-dihydro-5H-imidazo[1,5-a]pyrazine-1-carboxamide] | 500 to 5000 nM |
| CC1Cn2c(c(C(=O)NCc3ccccc3-c3cccnn3)n(-c3ccc(OCC(C)(O)C(F)(F)F)cc3)c2=O)CN1C(=O)c1ccc(Br)c(C(F)(F)F)c1 (centres unmarked) [Compound 85a, 7-(4-bromo-3-(trifluoromethyl)benzoyl)-6-methyl-3-oxo-N-(2-(pyridazin-3-yl)benzyl)-2-(4-(3,3,3-trifluoro-2-hydroxy-2-methylpropoxy)phenyl)-2,3,5,6,7,8-hexahydroimidazo[1,5-a]pyrazine-1-carboxamide] | 50 to 500 nM |
| CC(C)(O)COc1ccc(-n2c(C(=O)NCc3ccccc3)c3n(c2=O)CCN(C(=O)c2ccc(Br)c(Cl)c2)C3)cc1 [Compound 114, N-benzyl-7-(4-bromo-3-chloro-benzoyl)-2-[4-(2-hydroxy-2-methyl-propoxy)phenyl]-3-oxo-6,8-dihydro-5H-imidazo[1,5-a]pyrazine-1-carboxamide] | 50 to 500 nM |
| C[C@@H]1CN(c2ccc(-n3c(C(=O)NCc4ccccc4)c4n(c3=O)CCN(C(=O)c3ccc(Br)c(Cl)c3)C4)cc2)CCN1C [Compound 116, N-benzyl-7-(4-bromo-3-chloro-benzoyl)-3-oxo-2-[4-[(3R)-3,4-dimethylpiperazin-1-yl]phenyl]-6,8-dihydro-5H-imidazo[1,5-a]pyrazine-1-carboxamide] | 50 to 500 nM |
| CC1(O)CN(c2ccc(-n3c(C(=O)NCc4ccccc4)c4n(c3=O)CCN(C(=O)c3ccc(Br)c(Cl)c3)C4)cc2)C1 [Compound 117, N-benzyl-7-(4-bromo-3-chloro-benzoyl)-2-[4-(3-hydroxy-3-methyl-azetidin-1-yl)phenyl]-3-oxo-6,8-dihydro-5H-imidazo[1,5-a]pyrazine-1-carboxamide] | 50 to 500 nM |
| O=C(NCc1ccccc1)c1c2n(c(=O)n1-c1ccc(N3CC(O)(C(F)(F)F)C3)cc1)CCN(C(=O)c1ccc(Br)c(Cl)c1)C2 [Compound 118, N-benzyl-7-(4-bromo-3-chloro-benzoyl)-2-[4-[3-hydroxy-3-(trifluoromethyl)azetidin-1-yl]phenyl]-3-oxo-6,8-dihydro-5H-imidazo[1,5-a]pyrazine-1-carboxamide] | 50 to 500 nM |
| O=C(NCc1ccccc1)c1c2n(c(=O)n1-c1ccc(N3CCOC(F)(F)C3)cc1)CCN(C(=O)c1ccc(Br)c(Cl)c1)C2 [Compound 119, N-benzyl-7-(4-bromo-3-chloro-benzoyl)-2-[4-(2,2-difluoromorpholin-4-yl)phenyl]-3-oxo-6,8-dihydro-5H-imidazo[1,5-a]pyrazine-1-carboxamide] | 50 to 500 nM |
| O=C(NCc1ccccc1)c1c2n(c(=O)n1-c1ccc(N3CCOC4(CC4)C3)cc1)CCN(C(=O)c1ccc(Br)c(Cl)c1)C2 [Compound 120, N-benzyl-7-(4-bromo-3-chloro-benzoyl)-2-[4-(4-oxa-7-azaspiro[2.5]octan-7-yl)phenyl]-3-oxo-6,8-dihydro-5H-imidazo[1,5-a]pyrazine-1-carboxamide] | 50 to 500 nM |
| O=C(NCc1ccccc1)c1c2n(c(=O)n1-c1ccc(N3CC4CCC(C3)O4)cc1)CCN(C(=O)c1ccc(Br)c(Cl)c1)C2 [Compound 121, N-benzyl-7-(4-bromo-3-chloro-benzoyl)-2-[4-(8-oxa-3-azabicyclo[3.2.1]octan-3-yl)phenyl]-3-oxo-6,8-dihydro-5H-imidazo[1,5-a]pyrazine-1-carboxamide] | 50 to 500 nM |
| O=C(NCc1ccccc1)c1c2n(c(=O)n1-c1ccc(N3CCN(CC(F)(F)F)CC3)cc1)CCN(C(=O)c1ccc(Br)c(Cl)c1)C2 [Compound 122, N-benzyl-7-(4-bromo-3-chloro-benzoyl)-3-oxo-2-[4-[4-(2,2,2-trifluoroethyl)piperazin-1-yl]phenyl]-6,8-dihydro-5H-imidazo[1,5-a]pyrazine-1-carboxamide] | 50 to 500 nM |
| Cn1cnc2cc(-n3c(C(=O)NCc4ccccc4)c4n(c3=O)CCN(C(=O)c3ccc(Br)c(Cl)c3)C4)ccc21 [Compound 123, N-benzyl-7-(4-bromo-3-chloro-benzoyl)-2-(1-methylbenzimidazol-5-yl)-3-oxo-6,8-dihydro-5H-imidazo[1,5-a]pyrazine-1-carboxamide] | 500 to 5000 nM |
| Cn1cnc2ccc(-n3c(C(=O)NCc4ccccc4)c4n(c3=O)CCN(C(=O)c3ccc(Br)c(Cl)c3)C4)cc21 [Compound 124, N-benzyl-7-(4-bromo-3-chloro-benzoyl)-2-(3-methylbenzimidazol-5-yl)-3-oxo-6,8-dihydro-5H-imidazo[1,5-a]pyrazine-1-carboxamide] | 500 to 5000 nM |
| O=C(NCc1ccccc1)c1c2n(c(=O)n1-c1ccc3ocnc3c1)CCN(C(=O)c1ccc(Br)c(Cl)c1)C2 [Compound 126, 2-(1,3-benzoxazol-5-yl)-N-benzyl-7-(4-bromo-3-chloro-benzoyl)-3-oxo-6,8-dihydro-5H-imidazo[1,5-a]pyrazine-1-carboxamide] | 500 to 5000 nM |
| CNc1nc2cc(-n3c(C(=O)NCc4ccccc4)c4n(c3=O)CCN(C(=O)c3ccc(Br)c(Cl)c3)C4)ccc2o1 [Compound 127, N-benzyl-7-(4-bromo-3-chloro-benzoyl)-2-[2-(methylamino)-1,3-benzoxazol-5-yl]-3-oxo-6,8-dihydro-5H-imidazo[1,5-a]pyrazine-1-carboxamide] | 500 to 5000 nM |
| O=C(NCc1ccccc1)c1c2n(c(=O)n1-c1ccc3c(ccn3CCO)c1)CCN(C(=O)c1ccc(Br)c(Cl)c1)C2 [Compound 128, N-benzyl-7-(4-bromo-3-chloro-benzoyl)-2-[1-(2-hydroxyethyl)indol-5-yl]-3-oxo-6,8-dihydro-5H-imidazo[1,5-a]pyrazine-1-carboxamide] | 50 to 500 nM |
| O=C(NCc1ccccc1)c1c2n(c(=O)n1-c1ccc(OC3CC(O)C3)cc1)CCN(C(=O)c1ccc(Br)c(Cl)c1)C2 (centres unmarked) [Compound 129, N-benzyl-7-(4-bromo-3-chloro-benzoyl)-2-[4-(3-hydroxycyclobutoxy)phenyl]-3-oxo-6,8-dihydro-5H-imidazo[1,5-a]pyrazine-1-carboxamide] | 50 to 500 nM |
